This note sets out measurements from patent publication US11339130B1 (Blade Therapeutics, Inc., priority 2016, dated 2022).

Like-named read-outs stand apart in the source and are kept apart here.

What all share (type): biochemical
The target in assay [1] is T1, Human Calpain 9/NS1 (Homo sapiens, UniProt O14815).
T1 sequence (O14815 1-690): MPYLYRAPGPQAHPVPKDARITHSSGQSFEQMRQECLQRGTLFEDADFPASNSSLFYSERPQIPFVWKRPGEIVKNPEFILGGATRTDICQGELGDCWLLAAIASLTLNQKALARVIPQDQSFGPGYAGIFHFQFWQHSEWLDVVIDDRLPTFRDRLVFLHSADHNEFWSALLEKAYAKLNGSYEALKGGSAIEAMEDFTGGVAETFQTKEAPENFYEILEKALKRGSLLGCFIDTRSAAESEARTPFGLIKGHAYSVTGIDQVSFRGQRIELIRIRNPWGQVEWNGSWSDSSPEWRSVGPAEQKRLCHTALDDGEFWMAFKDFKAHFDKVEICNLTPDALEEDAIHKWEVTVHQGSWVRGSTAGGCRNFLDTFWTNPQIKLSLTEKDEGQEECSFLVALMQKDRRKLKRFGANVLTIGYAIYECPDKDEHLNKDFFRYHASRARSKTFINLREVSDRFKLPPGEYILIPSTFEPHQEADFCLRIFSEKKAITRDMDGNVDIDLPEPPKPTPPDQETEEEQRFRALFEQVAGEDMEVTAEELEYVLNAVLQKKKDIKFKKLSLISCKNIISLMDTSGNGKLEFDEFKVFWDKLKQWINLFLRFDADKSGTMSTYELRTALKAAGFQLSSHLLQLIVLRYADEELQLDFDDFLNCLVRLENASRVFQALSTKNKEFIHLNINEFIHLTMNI
T1 sequence (P04632 1-268 partner): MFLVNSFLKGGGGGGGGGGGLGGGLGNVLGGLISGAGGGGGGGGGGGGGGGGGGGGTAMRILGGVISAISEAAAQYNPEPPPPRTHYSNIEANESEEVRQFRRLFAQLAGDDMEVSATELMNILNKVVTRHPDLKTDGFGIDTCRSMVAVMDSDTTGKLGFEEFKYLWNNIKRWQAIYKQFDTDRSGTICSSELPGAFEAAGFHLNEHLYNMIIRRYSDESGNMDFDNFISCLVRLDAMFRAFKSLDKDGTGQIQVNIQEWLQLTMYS
Briefly: Calpain inhibition continuous fluorescence (FRET) assay, Human Calpain 9/NS1. The following applies: read-out: Human Calpain 9/NS1 IC50. The essentials:
(§1)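 Calpain activity is measured kinetically with a quenched FRET peptide in 50 mM Tris pH 7.5, 100 mM NaCl, 1 mM DTT, with CaCl2 triggering activation. Rates over 1-5 min are plotted against log inhibitor to obtain IC50 by 4-parameter logistic fitting.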

Assay [2] concerns the target T2, Human Calpain 2/NS1 (Homo sapiens, UniProt P17655).
T2 sequence (P17655 1-700): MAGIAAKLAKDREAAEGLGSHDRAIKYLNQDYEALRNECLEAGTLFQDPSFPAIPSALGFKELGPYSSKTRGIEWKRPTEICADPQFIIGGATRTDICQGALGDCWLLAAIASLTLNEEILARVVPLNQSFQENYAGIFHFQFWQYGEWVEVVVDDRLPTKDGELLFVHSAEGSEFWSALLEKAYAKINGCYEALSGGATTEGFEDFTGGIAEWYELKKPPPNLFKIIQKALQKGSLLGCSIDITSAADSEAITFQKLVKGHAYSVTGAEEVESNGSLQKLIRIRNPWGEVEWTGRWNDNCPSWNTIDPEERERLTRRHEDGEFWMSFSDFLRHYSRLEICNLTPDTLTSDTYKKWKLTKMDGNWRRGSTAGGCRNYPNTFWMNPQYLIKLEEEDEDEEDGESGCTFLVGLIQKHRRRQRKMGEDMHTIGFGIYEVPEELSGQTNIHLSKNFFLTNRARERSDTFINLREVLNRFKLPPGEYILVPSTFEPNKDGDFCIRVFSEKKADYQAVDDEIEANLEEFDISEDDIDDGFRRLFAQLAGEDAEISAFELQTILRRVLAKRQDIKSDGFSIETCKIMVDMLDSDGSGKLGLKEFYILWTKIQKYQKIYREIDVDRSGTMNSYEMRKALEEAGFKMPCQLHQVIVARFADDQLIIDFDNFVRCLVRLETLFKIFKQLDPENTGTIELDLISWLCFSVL
T2 sequence (P04632 1-268 partner): T1 sequence (P04632 1-268 partner)
In words: Calpain inhibition continuous fluorescence (FRET) assay, Human Calpain 2/NS1. The note with it: read-out: Human Calpain 2/NS1 IC50. The essentials:
as §1

The target of assay [3] is T3, Human Calpain 1/NS1 (Homo sapiens, UniProt P07384).
T3 sequence (P07384 1-714): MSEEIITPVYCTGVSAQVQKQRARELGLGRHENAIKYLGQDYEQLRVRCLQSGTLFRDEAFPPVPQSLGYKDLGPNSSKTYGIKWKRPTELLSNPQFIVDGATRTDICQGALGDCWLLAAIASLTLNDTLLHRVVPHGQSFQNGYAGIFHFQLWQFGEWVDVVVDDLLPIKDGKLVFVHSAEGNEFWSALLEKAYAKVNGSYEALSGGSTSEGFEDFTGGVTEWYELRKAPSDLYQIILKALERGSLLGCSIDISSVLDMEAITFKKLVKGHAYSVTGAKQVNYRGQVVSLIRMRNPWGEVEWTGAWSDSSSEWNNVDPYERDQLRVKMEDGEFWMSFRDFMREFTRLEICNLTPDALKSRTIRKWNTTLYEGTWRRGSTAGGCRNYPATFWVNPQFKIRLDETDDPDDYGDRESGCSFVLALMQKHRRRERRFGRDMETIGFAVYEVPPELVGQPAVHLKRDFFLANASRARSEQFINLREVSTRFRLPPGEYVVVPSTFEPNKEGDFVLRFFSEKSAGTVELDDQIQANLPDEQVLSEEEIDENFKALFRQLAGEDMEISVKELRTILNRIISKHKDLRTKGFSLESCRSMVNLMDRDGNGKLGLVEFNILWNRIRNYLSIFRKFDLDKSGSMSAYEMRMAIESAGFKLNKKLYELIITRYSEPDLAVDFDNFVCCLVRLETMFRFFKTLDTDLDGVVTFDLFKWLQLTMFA
T3 sequence (P04632 1-268 partner): T1 sequence (P04632 1-268 partner)
Briefly: Calpain inhibition continuous fluorescence (FRET) assay, Human Calpain 1/NS1. The following applies: read-out: Human Calpain 1/NS1 IC50. The procedure, abridged: as §1

Consider `NC(=O)C(=O)[C@H](Cc1ccccc1)NC(=O)c1cncn1-c1n[nH]c2ccccc12` [Compound 69, (S)—N-(4-amino-3,4-dioxo-1-phenylbutan-2-yl)-1-(1H-indazol-3-yl)-1H-imidazole-5-carboxamide], for which the IC50 in assay [1] (Column C), in assay [2] (Column B) and in assay [3] (Column A) was below 3 µM each time.

With `Cn1cc(-c2nn(C)cc2C(=O)NC(Cc2ccccc2)C(=O)C(N)=O)cn1` (stereo not drawn) [Compound 626, N-(4-amino-3,4-dioxo-1-phenylbutan-2-yl)-1,1′-dimethyl-1H,1′H-[3,4′-bipyrazole]-4-carboxamide], the IC50 in assay [1], in assay [2] and in assay [3] was below 3 µM throughout.

As to `Cc1nc(-c2ccccc2)c(C(=O)N[C@@H](Cc2ccccc2)C(=O)C(=O)NC2CC2)s1` [Compound 124, (S)—N-(4-(cyclopropylamino)-3,4-dioxo-1-phenylbutan-2-yl)-2-methyl-4-phenylthiazole-5-carboxamide], the IC50 in assay [1] (Column C), in assay [2] (Column B) and in assay [3] (Column A) was below 3 µM throughout.

In the case of `NC(=O)C(=O)C(Cc1ccccc1)NC(=O)c1conc1-c1ncccn1` (stereo not drawn) [Compound 324, N-(4-amino-3,4-dioxo-1-phenylbutan-2-yl)-3-(pyrimidin-2-yl)isoxazole-4-carboxamide], the IC50 in assay [1] was 3 to 10 µM; in assay [2] it was below 3 µM; in assay [3], below 3 µM.

In the case of `Cc1noc(-c2ccccc2)c1C(=O)N[C@@H](Cc1ccccc1)C(=O)C(=O)NCc1ccc(Cl)c(Cl)c1` [Compound 101, (S)—N-(4-((3,4-dichlorobenzyl)amino)-3,4-dioxo-1-phenylbutan-2-yl)-3-methyl-5-phenylisoxazole-4-carboxamide], the IC50 in assay [1] (Column C), in assay [2] (Column B) and in assay [3] (Column A) was above 10 µM throughout.

Take `Cn1cc(C(=O)NC(Cc2ccccc2)C(=O)C(N)=O)c(C2CCOC2)n1` (stereo not drawn) [Compound 627, N-(4-amino-3,4-dioxo-1-phenylbutan-2-yl)-1-methyl-3-(tetrahydrofuran-3-yl)-1H-pyrazole-4-carboxamide]: the figures for the IC50 in assay [1], in assay [2] and in assay [3] were 3 to 10 µM, below 3 µM and 3 to 10 µM, respectively.

Turning to `O=C(NC1CC1)C(=O)[C@H](Cc1ccccc1)NC(=O)c1cncn1-c1cc(-c2ncco2)ccn1` [Compound 77, (S)—N-(4-(cyclopropylamino)-3,4-dioxo-1-phenylbutan-2-yl)-1-(4-(oxazol-2-yl)pyridin-2-yl)-1H-imidazole-5-carboxamide], the IC50 in assay [1] (Column C) was above 10 µM; in assay [2] (Column B) it was 3 to 10 µM; in assay [3] (Column A), below 3 µM.

Turning to `NC(=O)C(=O)[C@H](Cc1ccccc1)NC(=O)c1scnc1-n1cc2ccccc2n1` [Compound 37, (S)—N-(4-amino-3,4-dioxo-1-phenylbutan-2-yl)-4-(2H-indazol-2-yl)thiazole-5-carboxamide], the IC50 in assay [1] (Column C), in assay [2] (Column B) and in assay [3] (Column A) was below 3 µM each time.

For `Cc1cc(C(=O)N[C@@H](Cc2ccccc2)C(=O)C(=O)NC2CC2)nn1-c1nc(-c2ccccc2)cs1` [Compound 125, (S)—N-(4-(cyclopropylamino)-3,4-dioxo-1-phenylbutan-2-yl)-5-methyl-1-(4-phenylthiazol-2-yl)-1H-pyrazole-3-carboxamide], the IC50 in assay [1] (Column C), in assay [2] (Column B) and in assay [3] (Column A) was above 10 µM each time.

As to `Cc1cc(C(=O)NC(Cc2ccccc2)C(=O)C(N)=O)n(-c2ccncn2)n1` (stereo not drawn) [Compound 409, N-(4-amino-3,4-dioxo-1-phenylbutan-2-yl)-3-methyl-1-(pyrimidin-4-yl)-1H-pyrazole-5-carboxamide], the IC50 in assay [1], in assay [2] and in assay [3] was below 3 µM in each case.

On to `Cc1nc(-c2cccc(C(F)(F)F)n2)c(C(=O)NC(Cc2ccccc2)C(=O)C(N)=O)o1` (stereo not drawn) [Compound 287], for which the figures for the IC50 in assay [1] (Column C), in assay [2] (Column B) and in assay [3] (Column A) were below 3 µM, 3 to 10 µM and below 3 µM, respectively.

Take `NC(=O)C(=O)[C@H](Cc1ccccc1)NC(=O)c1conc1-c1ccccc1` [Compound 304, (S)—N-(4-amino-3,4-dioxo-1-phenylbutan-2-yl)-3-phenylisoxazole-4-carboxamide]: the IC50 in assay [1] (Column C), in assay [2] (Column B) and in assay [3] (Column A) was below 3 µM throughout.

In the case of `Cc1cc(C(=O)N[C@@H](Cc2ccccc2)C(=O)C(=O)NC2CC2)n(-c2cccc3ncccc23)n1` [Compound 78, (S)—N-(4-(cyclopropylamino)-3,4-dioxo-1-phenylbutan-2-yl)-3-methyl-1-(quinolin-5-yl)-1H-pyrazole-5-carboxamide], the IC50 in assay [1] (Column C) was below 3 µM; in assay [2] (Column B), 3 to 10 µM; in assay [3] (Column A), above 10 µM.

Consider `Cn1ncc(C(=O)NC(Cc2ccccc2)C(=O)C(N)=O)c1Cc1ccccc1` (stereo not drawn) [Compound 488, N-(4-amino-3,4-dioxo-1-phenylbutan-2-yl)-5-benzyl-1-methyl-1H-pyrazole-4-carboxamide], for which the IC50 in assay [1], in assay [2] and in assay [3] was 3 to 10 µM each time.

Turning to `O=C(NC1CC1)C(=O)[C@H](Cc1ccccc1)NC(=O)c1cncn1-c1nc2ccccc2[nH]1` [Compound 71, (S)-1-(1H-benzo[d]imidazol-2-yl)-N-(4-(cyclopropylamino)-3,4-dioxo-1-phenylbutan-2-yl)-1H-imidazole-5-carboxamide], the IC50 in assay [1] (Column C) was above 10 µM; in assay [2] (Column B), 3 to 10 µM; in assay [3] (Column A) it was 3 to 10 µM.

With `Cn1cnc(C(=O)N[C@@H](Cc2ccccc2)C(=O)C(N)=O)c1-c1ccccc1` [Compound 269, (S)—N-(4-amino-3,4-dioxo-1-phenylbutan-2-yl)-1-methyl-5-phenyl-1H-imidazole-4-carboxamide], the IC50 in assay [1] (Column C) was below 3 µM; in assay [2] (Column B) it was 3 to 10 µM; in assay [3] (Column A), 3 to 10 µM.
